Data: paper PMC10508264, “Exploring the antioxidant, antimicrobial, cytotoxic and biothermodynamic properties of novel morpholine derivative bioactive Mn(II), Co(II) and Ni(II) complexes – combined experimental and theoretical measurements towards DNA/BSA/SARS-CoV-2 3CL^Pro” (RSC Medicinal Chemistry, 2023)

Biological target: BSA (Bos taurus, UniProt P02769)
Experiment: FRET computation, donor (BSA)–acceptor (compound)
Type: binding, bovine
Parameters: kET (rate of energy transfer): unit not given here
Conditions: for B (average brightness of complex–BSA system): free BSA 6573.60
From the text: The critical distance between donor and acceptor molecules can be estimated using the FRET approach to assess the binding affinity between BSA and a test substance.[13,33–35]
FRET is a non-destructive spectroscopic method consisting of a process between several electronic excited states of molecules that is dependent on distance (r). FRET can also be employed to distinguish the relative angular orientation and closeness of fluorophores.[82] The process happens when there is a large overlap between the absorption spectrum acceptor (compound/chromophore) and the donor's emission spectrum (BSA/fluorophore) (Fig. S30 ^†). Also, the average distance (r) between the donor and acceptor can be measured in accordance with this theory. Fluorescence is quenched due to energy being transmitted from the excited state of BSA to the substances (HL)/(1–3). As a result of the FRET analysis, the observed r findings were in the range of 2.4127–2.7129 nm (Table 5 and Fig. S30 ^†). […] The following conditions have a major impact on the effectiveness of FRET: (i) the distance (r) should be in the prescribed range of 2–8 nm for energy transfer; (ii) there is a large overlap between the emission spectrum of biomolecules (donors) and the electronic absorption spectrum of acceptors (substances); and (iii) the BSA and compound transition dipoles are oriented correctly. BSA transmits excitation energy to a compound during FRET without emitting a photon from the previous molecule system. Energy transfer (E) results were acquired from eqn (18) (Table 5). K^2 is associated with the geometry of the BSA and complex of the dipoles, the value for random orientation (K2 = 2/3) as in a fluid solution. Basically, the K^2 values were found in the range from 0 to 4, and energy can be transferred from BSA to the compound when electrons are transferred between the two molecules. For parallel transition dipoles that are aligned, K^2 is equal to 4, which denotes maximal energy transfer; and when the orientation of the dipoles is perpendicular to one another, K^2 is equal to 0, which denotes very weak energy transfer. When the relative orientation of the dipoles is random, K^2 is equal to 2/3. Eqn (20) is helpful for measuring the J values for overlap of the emission spectrum of BSA with the electronic absorption spectrum of the compound. The molar absorption coefficient (εA) and fluorescence emission intensity were both measured on the unit area scale of wavenumbers. It is imperative that J, after being normalized, is independent of the real size of εA. The following variables for the complex–BSA interaction are determined using eqn (18)–(23), n = 1.36, Φ = 0.15, E = 0.3462–0.5692, J = 0.8215–1.0886 × 10^−14 cm^3 L mol^−1, R0 = 2.4400–2.5573 nm, r = 2.4127–2.7129 nm, kET = 5.2941–13.2142 J s^−1 and B = 5339.79–6007.23 mol^−1 cm^−1 (Table 5). The observed values of R0 and r between BSA Trp213 and the interacting compound were substantially smaller than 8 nm and their relationships are found in the following sequence: 0.5R0 (1.2200–1.2786) < r (2.4127–2.7128) < 1.5R0 (3.6601–3.8358). […] Also, τ is denoted as the lifetime of fluorescence emission of the biomolecule and is described as the inverse of the entire degradation rate τ = 1/(kr + knr). The radiative lifetime of the fluorophore is represented as τ0 = 1/kr. The values of τ and Φ are associated with eqn (21) (Table 5). Quenching occurs when the ground or excited states of BSA come into contact with a compound in the solution. The intensity of fluorescence emission is also decreasing. Quenching is divided into the two main categories of dynamic and static quenching. While BSA is in an excited state, it binds with the substance during a dynamic or collisional quenching mechanism, and is then deactivated to the ground state without the emission of radiation. Therefore, the concentration of the quenching compounds affects dynamic quenching. The τ and Φ values for BSA diminish with an increase in the compound concentration. […]

SMILES	E (efficiency of energy transfer)	J (spectral overlap integral)	R0 (Förster radius) [nm]	kET (rate of energy transfer)	r (donor–acceptor distance) [nm]	B (average brightness of complex–BSA system) [M⁻¹ cm⁻¹]
Oc1ccccc1N=Cc1ccc(N2CCOCC2)cc1 [(HL), 2-(4-morpholinobenzylideneamino)phenol]	0.3462	0.8215 × 10^−14 (LM^−1 cm^3)	2.4400	5.2941	2.7129	5339.79
[Mn+2].[O-]c1ccccc1N=Cc1ccc(N2CCOCC2)cc1.[O-]c1ccccc1N=Cc1ccc(N2CCOCC2)cc1.c1ccc(-c2ccccn2)nc1 [(1)]	0.4462	1.0886 × 10^−14 (LM^−1 cm^3)	2.5573	8.0556	2.6511	6007.23
[Ni+2].[O-]c1ccccc1N=Cc1ccc(N2CCOCC2)cc1.[O-]c1ccccc1N=Cc1ccc(N2CCOCC2)cc1.c1ccc(-c2ccccn2)nc1 [(3)]	0.5692	1.0145 × 10^−14 (LM^−1 cm^3)	2.5274	13.2142	2.4127	5822.04
[Co+2].[O-]c1ccccc1N=Cc1ccc(N2CCOCC2)cc1.[O-]c1ccccc1N=Cc1ccc(N2CCOCC2)cc1.c1ccc(-c2ccccn2)nc1 [(2)]	0.5000	1.0201 × 10^−14 (LM^−1 cm^3)	2.5297	10.000	2.5297	5835.99
